In ChEMBL document CHEMBL5038649, “Chemical Space Expansion of Flavonoids: Induction of Mitotic Inhibition by Replacing Ring B with a 10π-Electron System, Benzo[b]thiophene” (J Nat Prod, 2022):

Legend:
Format in all cases: functional, cell-based
[1] = Antiproliferative activity against human KB-VIN cells assessed as reduction in cell viability after 72 hrs by SRB assay; details: KBVIN
A549 = test: Antiproliferative activity against human A549 cells assessed as reduction in cell viability after 72 hrs by SRB assay; details: A549, 72 h
MCF7 = test: Antiproliferative activity against human MCF7 cells assessed as reduction in cell viability after 72 hrs by SRB assay; details: MCF7, 72 h
MDA-MB-231 = test: Antiproliferative activity against human MDA-MB-231 cells assessed as reduction in cell viability after 72 hrs by SRB assay; details: MDA-MB-231, 72 h
KB = test: Antiproliferative activity against human KB cells assessed as reduction in cell viability after 72 hrs by SRB assay

SMILES	IC50 (A549)	IC50 (MCF7)	IC50 (MDA-MB-231)	IC50 (KB)	IC50 [1]
COc1cc(O)c(C(=O)/C=C/c2csc3ccccc23)cc1OC	0.45 µM	0.71 µM	0.69 µM	0.52 µM	0.27 µM
COc1c(O)cc2occ(-c3ccccc3)c(=O)c2c1O	> 10 µM	> 10 µM	> 10 µM	> 10 µM	> 10 µM
O=C(/C=C/c1ccccc1)c1cccc2ccccc12	5 µM	9.8 µM	6 µM	6.2 µM	5.4 µM
O=C(/C=C/c1ccccc1)c1ccccc1 [CHALCONE]	> 10 µM	> 10 µM	> 10 µM	> 10 µM	> 10 µM
COc1cc2occ(-c3csc4ccccc34)c(=O)c2cc1OC	> 10 µM	> 10 µM	> 10 µM	> 10 µM	> 10 µM
O=C(/C=C/c1c[nH]c2ccccc12)c1cc(Cl)ccc1O	0.75 µM	5.7 µM	0.99 µM	0.91 µM	0.8 µM
COc1c(OC(C)C)cc2occ(-c3csc4ccccc34)c(=O)c2c1OC(C)C	8.9 µM	> 10 µM	> 10 µM	> 10 µM	7.3 µM
COc1ccc(O)c(C(=O)/C=C/c2cc3ccccc3s2)c1	> 10 µM	> 10 µM	> 10 µM	> 10 µM	> 10 µM
CCOc1cc2occ(-c3csc4ccccc34)c(=O)c2c(OCC)c1OC	2.6 µM	3.1 µM	1 µM	4.2 µM	0.67 µM
O=C(/C=C/c1cc2ccccc2s1)c1cc(Cl)cc(Cl)c1O	6.9 µM	9.9 µM	7.5 µM	7.8 µM	5.8 µM
COc1c(OC(C)C)cc2oc(-n3cncn3)c(-c3csc4ccccc34)c(=O)c2c1OC(C)C	> 10 µM	> 10 µM	> 10 µM	> 10 µM	5 µM
O=C(/C=C/c1cc2ccccc2s1)c1cc(Cl)ccc1O	> 10 µM	> 10 µM	> 10 µM	> 10 µM	> 10 µM
COc1ccc(O)c(/C=C/C(=O)c2csc3ccccc23)c1	4.7 µM	5.9 µM	5.4 µM	5 µM	4.4 µM
O=C(/C=C/c1ccc(Cl)cc1)c1csc2ccccc12	6.6 µM	9.7 µM	7.3 µM	8.1 µM	5.5 µM
COc1c(OC(C)C)cc2occ(-c3csc4ccccc34)c(=O)c2c1O	7.2 µM	> 10 µM	> 10 µM	> 10 µM	> 10 µM
CC(C)=CCc1cc(C(=O)/C=C/c2csc3ccccc23)c(O)cc1O	6 µM	7.4 µM	8.9 µM	7.6 µM	5.4 µM

SMILES	IC50 (A549)	IC50 (MCF7)	IC50 (MDA-MB-231)	IC50 (KB)	IC50 [1]
CCOc1c(OC)cc2occ(-c3csc4ccccc34)c(=O)c2c1OC	4.8 µM	4 µM	5.2 µM	4 µM	0.84 µM
COc1c(OC(C)C)cc2oc(-n3cncn3)c(-c3ccccc3)c(=O)c2c1OC(C)C	> 10 µM	> 10 µM	> 10 µM	> 10 µM	> 10 µM
O=C(/C=C/c1csc2ccccc12)c1cc(Br)cc(Br)c1O	4.2 µM	5.8 µM	4.3 µM	4.8 µM	1 µM
COc1ccc(/C=C/C(=O)c2csc3ccccc23)cc1	> 10 µM	> 10 µM	> 10 µM	> 10 µM	8.1 µM
O=C(/C=C/c1ccccc1)c1c(O)ccc2ccccc12	> 10 µM	> 10 µM	> 10 µM	> 10 µM	> 10 µM
COc1c(OC(C)C)cc2ccc(-c3cc(=O)c4ccccc4o3)cc2c1OC(C)C	> 10 µM	> 10 µM	> 10 µM	> 10 µM	8.2 µM
CC(C)Oc1ccc(/C=C/C(=O)c2csc3ccccc23)cc1	> 10 µM	> 10 µM	> 10 µM	> 10 µM	> 10 µM
COc1cc2occ(-c3csc4ccccc34)c(=O)c2c(OC)c1O	> 10 µM	> 10 µM	> 10 µM	> 10 µM	> 10 µM
O=C(/C=C/c1cc2ccccc2s1)c1cc(Br)ccc1O	> 10 µM	> 10 µM	> 10 µM	> 10 µM	> 10 µM
COc1c(OC(C)C)cc2occ(-c3ccccc3)c(=O)c2c1O	> 10 µM	> 10 µM	> 10 µM	> 10 µM	> 10 µM
COc1c(OC(C)C)cc2occ(-c3ccccc3)c(=O)c2c1OC(C)C	> 10 µM	> 10 µM	> 10 µM	> 10 µM	> 10 µM
COc1ccc(/C=C/C(=O)c2csc3ccccc23)cc1OC	5.2 µM	9.4 µM	6.6 µM	4.9 µM	4.7 µM
COc1cc(O)c(C(=O)/C=C/c2csc3ccccc23)c(OC)c1OC	5.3 µM	7.7 µM	6.9 µM	6.7 µM	4.9 µM
COc1c(O)cc2occ(-c3csc4ccccc34)c(=O)c2c1O	> 10 µM	> 10 µM	> 10 µM	> 10 µM	> 10 µM
COc1cc2c(=O)c(-c3csc4ccccc34)coc2c(OC)c1OC	> 10 µM	> 10 µM	> 10 µM	> 10 µM	> 10 µM

Second part, led by results:

IC50 (A549)	IC50 (MCF7)	IC50 (MDA-MB-231)	IC50 (KB)	SMILES	IC50 [1]
3.7 µM	5.8 µM	3.3 µM	4.6 µM	O=C(/C=C/c1csc2ccccc12)c1cc(Cl)cc(Cl)c1O	0.83 µM
5.5 µM	7.5 µM	6.2 µM	5.7 µM	COc1cccc(/C=C/C(=O)c2csc3ccccc23)c1	5.4 µM
0.58 µM	0.75 µM	0.76 µM	0.64 µM	COc1ccc(O)c(C(=O)/C=C/c2csc3ccccc23)c1	0.4 µM
4.1 µM	5.5 µM	5.4 µM	4.6 µM	COc1ccc(OC)c(C(=O)/C=C/c2csc3ccccc23)c1	3.7 µM
7.2 µM	> 10 µM	> 10 µM	> 40 µM	O=C(/C=C/c1csc2ccccc12)c1ccc2ccccc2c1O	8.2 µM
5.6 µM	7.5 µM	7.4 µM	5.6 µM	COc1ccc(C(=O)/C=C/c2csc3ccccc23)c(O)c1	4.8 µM
> 10 µM	> 10 µM	> 10 µM	> 10 µM	O=C(/C=C/c1csc2ccccc12)c1cccc(Cl)c1	> 10 µM
5.4 µM	7.5 µM	6.7 µM	5.8 µM	CCOc1ccc(O)c(C(=O)/C=C/c2csc3ccccc23)c1	4.1 µM
> 10 µM	> 10 µM	> 10 µM	> 10 µM	O=C1/C(=C/c2csc3ccccc23)Oc2ccccc21	> 10 µM
5.3 µM	6.6 µM	5.3 µM	6.2 µM	O=C(/C=C/c1csc2ccccc12)c1ccccc1O	5.4 µM
9.1 µM	> 10 µM	6.7 µM	6.3 µM	O=C(/C=C/c1ccccc1)c1csc2ccccc12	5.8 µM
4.8 µM	6.9 µM	6.2 µM	5.1 µM	O=C(/C=C/c1csc2ccccc12)c1cc2c(cc1O)OCO2	2.1 µM
> 10 µM	> 10 µM	> 10 µM	> 10 µM	COc1c(OC(C)C)cc2c(c1O)C(=O)/C(=C/c1csc3ccccc13)O2	> 10 µM
> 10 µM	> 10 µM	> 10 µM	> 10 µM	O=C1/C(=C/c2ccccc2)Oc2ccccc21 [(Z)-AURONE]	> 10 µM
0.66 µM	1.04 µM	0.84 µM	0.76 µM	O=C(/C=C/c1csc2ccccc12)c1cc(Br)ccc1O	0.47 µM
> 10 µM	> 10 µM	> 10 µM	> 10 µM	O=c1c(-c2ccccc2)coc2ccccc12 [ISOFLAVONE]	> 10 µM
4.8 µM	7.8 µM	6 µM	4.9 µM	Cc1ccc(O)c(C(=O)/C=C/c2csc3ccccc23)c1	4.3 µM
> 10 µM	> 10 µM	> 10 µM	> 10 µM	O=c1c(-c2csc3ccccc23)coc2ccccc12	> 10 µM
7.1 µM	> 10 µM	8.4 µM	7.4 µM	O=C(/C=C/c1csc2ccccc12)c1cc(F)ccc1O	5.4 µM
> 10 µM	> 10 µM	> 10 µM	> 10 µM	COc1c(OC(C)C)cc2c(c1OC(C)C)C(=O)/C(=C/c1csc3ccccc13)O2	> 10 µM
6.4 µM	6.6 µM	8.5 µM	10 µM	CC(C)Oc1ccc(O)c(C(=O)/C=C/c2csc3ccccc23)c1	5.6 µM
